The test has as its target T1, human calcium receptor (Homo sapiens, UniProt P41180).
T1 construct: expressed in transfected cells; host or cells: cell strain derived from rat adrenal, co-transfected with luciferase cDNA
T1 sequence (P41180 20-1078): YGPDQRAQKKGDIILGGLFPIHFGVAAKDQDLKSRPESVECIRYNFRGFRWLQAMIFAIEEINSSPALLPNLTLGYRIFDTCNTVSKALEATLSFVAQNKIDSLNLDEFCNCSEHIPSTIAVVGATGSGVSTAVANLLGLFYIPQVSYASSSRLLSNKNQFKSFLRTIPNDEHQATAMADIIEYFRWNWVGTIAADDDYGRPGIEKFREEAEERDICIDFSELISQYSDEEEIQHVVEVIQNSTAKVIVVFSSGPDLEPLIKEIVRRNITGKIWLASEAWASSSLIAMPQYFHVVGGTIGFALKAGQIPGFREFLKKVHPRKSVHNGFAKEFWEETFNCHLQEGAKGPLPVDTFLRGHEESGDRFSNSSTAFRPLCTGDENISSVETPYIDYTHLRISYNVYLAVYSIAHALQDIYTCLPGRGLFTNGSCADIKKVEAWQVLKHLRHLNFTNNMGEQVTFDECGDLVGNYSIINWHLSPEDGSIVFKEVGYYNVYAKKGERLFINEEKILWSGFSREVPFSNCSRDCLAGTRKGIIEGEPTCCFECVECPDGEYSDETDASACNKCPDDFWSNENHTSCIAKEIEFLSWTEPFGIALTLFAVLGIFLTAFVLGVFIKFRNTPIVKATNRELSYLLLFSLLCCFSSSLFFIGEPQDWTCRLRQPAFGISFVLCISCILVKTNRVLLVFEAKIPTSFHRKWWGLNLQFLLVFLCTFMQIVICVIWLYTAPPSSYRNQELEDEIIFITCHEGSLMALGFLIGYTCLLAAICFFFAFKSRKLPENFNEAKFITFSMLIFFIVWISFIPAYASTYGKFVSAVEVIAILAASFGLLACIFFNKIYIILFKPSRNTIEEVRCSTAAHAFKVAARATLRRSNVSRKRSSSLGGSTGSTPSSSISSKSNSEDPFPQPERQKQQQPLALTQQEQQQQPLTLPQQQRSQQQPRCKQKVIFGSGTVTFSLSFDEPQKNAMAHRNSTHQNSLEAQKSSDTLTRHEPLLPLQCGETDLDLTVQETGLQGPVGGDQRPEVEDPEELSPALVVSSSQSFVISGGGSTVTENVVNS
Put plainly: Evaluation of antagonistic action on calcium receptor using reporter gene (luciferase). It counts as cell-based. Particulars: rat adrenal derived cells with luciferase and human calcium receptor cDNA, 5 mM calcium chloride, 4 hrs; read-out: IC50 (concentration showing 50% inhibitory rate of luciferase activity). On the procedure:
Evaluation of Antagonistic Action on Calcium Receptor Using Reporter Gene
Luciferase cDNA and human calcium receptor cDNA were introduced into a cell strain derived from rat adrenal to transform the cells, and the transformed cells were cultured in a medium (80 μl, F12 medium containing 0.5% dialyzed horse serum and 0.25% dialyzed bovine fetal serum). A dimethyl sulfoxide solution containing a test compound at 0.1-10000 μM was diluted 100-fold with the medium and added to the test compound group at 10 μl per well (final concentration of dimethyl sulfoxide is 0.1%). In the same manner as in test compound group, dimethyl sulfoxide diluted 100-fold with medium was added to a control group and a blank group. Then, 50 mM calcium chloride-containing medium was added to every well except the blank group at 10 μl per well (final concentration is 5 mM). A medium alone was added to the blank group. After culture for 4 hrs, luciferase substrate was added and the luciferase activity was measured with a photoluminometer. The inhibitory rate (%) was calculated from the obtained measured values according to the following formula.
Based on the results, the concentration (IC50) showing 50% inhibitory rate was determined.
(A reporter such as luciferase makes a cellular process visible.)
On to `C[C@@H](OC[C@H](O)CNC(C)(C)Cc1ccc2ccccc2c1)c1ccccc1CCCCCC(=O)O` [Example 2, 6-[2-[(1R)-1-[(2R)-2-hydroxy-3-[[2-methyl-1-(naphthalen-2-yl)propan-2-yl]amino]propoxy]ethyl]phenyl]hexanoic acid], for which the IC50 worked out at 14 nM. Turning to `CC(C)(Cc1ccc2ccccc2c1)NC[C@@H](O)COC(C1CC1)C1CC1` [Example 3, (2R)-1-dicyclopropylmethoxy-3-[[2-methyl-1-(naphthalen-2-yl)propan-2-yl]amino]propan-2-ol], the IC50 was found to be 23 nM. On to `CC(=O)NCc1ccc(-c2ccccc2[C@@H](C)OC[C@H](O)CNC(C)(C)Cc2ccc3ccccc3c2)cc1` [Example 5, N-[[2′-[(1R)-1-[(2R)-2-hydroxy-3-[[2-methyl-1-(naphthalen-2-yl)propan-2-yl]amino]propoxy]ethyl]biphenyl-4-yl]methyl]acetamide], for which the IC50 was determined as 24 nM.

With `CC(OC[C@H](O)CNC(C)(C)Cc1ccc2ccccc2c1)c1ccccc1-c1ccc(-c2nnn[nH]2)cc1` (stereo partly drawn) [Example 7, (R)-3-[[2-methyl-1-(naphthalen-2-yl)propan-2-yl]amino]-1-[1-[4′-(1H-tetrazol-5-yl)biphenyl-2-yl]ethoxy]propan-2-ol], the IC50 was 11 nM. Turning to `CC(OC(=O)OC1CCCCC1)OC(=O)c1ccc(-c2ccccc2C(C)OC[C@H](O)CNC(C)(C)Cc2ccc3ccccc3c2)cc1` (stereo partly drawn) [Example 8, 1-(cyclohexyloxycarbonyloxy)ethyl 2′-[1-[(2R)-2-hydroxy-3-[[2-methyl-1-(naphthalen-2-yl)propan-2-yl]amino]propoxy]ethyl]biphenyl-4-carboxylate], the IC50 was 21 nM. In the case of `CC(OC[C@H](O)CNC(C)(C)Cc1ccc2ccccc2c1)c1ccccc1-c1ccc(C(=O)O)s1` (stereo partly drawn) [Example 9, 5-[2-[1-[(2R)-2-hydroxy-3-[[2-methyl-1-(naphthalen-2-yl)propan-2-yl]amino]propoxy]ethyl]phenyl]thiophene-2-carboxylic acid], the IC50 was 14 nM. As for `CC(OC[C@H](O)CNC(C)(C)Cc1ccc2ccccc2c1)c1ccccc1C#CC(=O)O` (stereo partly drawn) [Example 10, [2-[1-[(2R)-2-hydroxy-3-[[2-methyl-1-(naphthalen-2-yl)propan-2-yl]amino]propoxy]ethyl]phenyl]propynoic acid], the IC50 worked out at 23 nM. `CCOP(=O)(O)c1ccc(-c2ccccc2[C@@H](C)OC[C@H](O)CNC(C)(C)Cc2ccc3ccccc3c2)cc1` [Example 11, Monoethyl [2′-[(1R)-1-[(2R)-2-hydroxy-3-[[2-methyl-1-(naphthalen-2-yl)propan-2-yl]amino]propoxy]ethyl]biphenyl-4-yl]phosphonate]: the IC50 came to 8 nM.

`CCOC(=O)Cc1ccc(-c2ccccc2C(C)OC[C@H](O)CNC(C)(C)Cc2ccc3ccccc3c2)cc1` (some centres unmarked) [Example 13]: the IC50 was 160 nM.

On to `CC(OC[C@H](O)CNC(C)(C)Cc1ccc2ccccc2c1)c1ccccc1-c1ccc(CC(=O)O)cc1` (some centres unmarked) [Example 14], for which the IC50 was 119 nM. In the case of `CC(OC[C@H](O)CNC(C)(C)Cc1ccc2ccccc2c1)c1ccccc1-c1ccc(CC(N)=O)cc1` (some centres unmarked) [Example 15], the IC50 was found to be 145 nM. Take `CC(OC[C@H](O)CNC(C)(C)Cc1ccc2ccccc2c1)c1ccccc1-c1ccc(-c2nsc(=O)[nH]2)cc1` (some centres unmarked) [Example 16]: the IC50 was found to be 135 nM. As for `C[C@@H](OC[C@H](O)CNC(C)(C)Cc1ccc2ccccc2c1)c1ccccc1-c1ccc(C(=O)NO)cc1` [Example 17], the figure is 104 nM; as for `CC(OC[C@H](O)CNC(C)(C)Cc1ccc2ccccc2c1)c1ccccc1-c1ccc(-c2nc(=O)o[nH]2)cc1` (some centres unmarked) [Example 19], 18 nM; as for `CC(OC[C@H](O)CNC(C)(C)Cc1ccc2ccccc2c1)c1ccccc1-c1ccc(C(N)=O)cc1` (some centres unmarked) [Example 20], 30 nM. For `CCOP(=O)(O)c1ccc(-c2ccccc2C(C)OC[C@H](O)CNC(C)(C)Cc2ccc3ccccc3c2)cc1` (some centres unmarked) [Example 21], the IC50 turned out to be 15 nM.

For `CC(OC[C@H](O)CNC(C)(C)Cc1ccc2ccccc2c1)c1ccccc1OCC(=O)O` (some centres unmarked) [Example 22], the IC50 came to 237 nM.

(Values after US7285572B2, “CaSR antagonist” (Japan Tobacco Inc., priority 2003, dated 2007).)
